The text below walks through data of publication PMC10355216, “The C-terminal tail of CSNAP attenuates the CSN complex” (Life Science Alliance, 2023).

Test [1] deals with CSN complex. As to the kind of experiment: Reciprocal co-immunoprecipitation (anti-CSN3, anti-GFP) of Cer fusions in HAP1 cells. The format is cell-based. The note with it: peptides fused to Cer expressed in HAP1 cells; anti-CSN3 and anti-GFP pull-downs. The text has this:
To clarify the ability of C-CSNAP peptides to displace CSNAP in cells, we stably expressed four versions of CSNAP, the 16AA and 20AA C-CSNAP, D42E and scrambled peptides fused to the fluorescent protein Cer in HAP1 cells. As control, we used HAP1 cells expressing Cer only. We then performed reciprocal co-immunoprecipitation analyses, using antibodies against CSN3 and GFP recognizing Cer (Figs 6A and S5). […] This is reflected by the higher intensity of the GFP band upon CSN3 pull down, and by the more intense CSN3 band following GFP co-immunoprecipitation.
(§1) Figure 6. Expression of C-CSNAP reduces cellular proliferation rate. (A) Immunoprecipitation analysis using anti-GFP antibody recognizing cerulean (Cer) from lysates of cells expressing the Cer-fused 16AA, 20AA, D42E, and scrambled C-CSNAP in HAP1 WT cells. The COP9 signalosome complex was pulled down from all cells, except when Cer is expressed alone or fused to the scrambled C-CSNAP. Similarly, reciprocal immunoprecipitation by an anti-CSN3 antibody pulled down only the Cer-fused 16AA, 20AA, or D42E C-CSNAP. (B) Stable overexpression of 16AA and 20AA C-CSNAP–Cer in HAP1 WT cells reduces their rate of proliferation. […] One-way ANOVA (P < 0.05) with Dunnett’s multiple comparisons test was used to compare means *P < 0.05, **P < 0.01.
Figure S5. […]

Test [2] relates to CSN complex (CSN5). Kind of test: Co-immunoprecipitation (anti-GFP) of transiently expressed Cer fusions in HAP1 WT cells. The format is cell-based. As to conditions: transient expression of Cer fusions, anti-GFP pull-down, CSN5/GFP densitometry, at least three experiments. An excerpt:
To define whether C-CSNAP can displace the endogenous CSN subunit from the complex, we transiently expressed several versions of C-CSNAP peptides with differing lengths, fused to the fluorescent protein cerulean (Cer) in WT HAP1 cells (Fig 2A) and cells lacking CSNAP (ΔCSNAP cells) (Fig S2A). We then performed co-immunoprecipitation analyses, using an antibody against GFP that recognizes the Cer tag (Figs 2B and C and S2B). […] Moreover, in ΔCSNAP cells, all C-CSNAP derivatives were efficiently incorporated into CSN (Fig S2B), whereas in WT cells, differential integration was observed (Fig 2B). […] Truncations of the 16 amino acid stretch from either end decreased or abolished the incorporation efficiency (Fig 2B and C).
Figure 2. The last 16 amino acids of CSNAP efficiently displace the endogenous CSNAP subunit. (A) The different CSNAP C-terminal sequences that were examined. The 16 amino acid sequence is highlighted in blue, and the N- or C-terminally truncated forms are labelled in green and magenta, respectively (numbering of residues are corresponding to full length CSNAP). […] (C) Quantification of the densitometry results of at least three independent immunoprecipitation experiments using an anti-GFP antibody, represented as mean ratios of immunoprecipitated CSN5/GFP, followed by normalization to the sample transfected with Cer, plotted as mean ± SEM. […]

The subject of test [3] is HAP1 WT cells. Kind of test: Resazurin-based cell proliferation assay. As to conditions: HAP1 WT cells stably expressing Cer fusions, 24 h after plating, five independent experiments.
Excerpt: as §1, with “0.01. […]” for “0.01.”
HAP1 WT cells stably expressing Cer, 16AA, and 20AA C-CSNAP–Cer were trypsinized and counted. […] Fluorescence intensities at 560/600 nm (ex/em) were measured, and average intensities of four replicates in each plate were calculated, normalized against WT after background subtraction, and normalized values from five independent experiments were compared on a bar graph with SEM. Significance was calculated using repeated measurment one-way ANOVA (P < 0.05) with Dunnett’s multiple comparisons test was used to compare means to Cer as control *P < 0.05, **P < 0.01.
(Resazurin is reduced to fluorescent resorufin, in cell work by metabolically active cells.)

In test [4] the target is CSN^ΔCSNAP complex. Kind of test: BIAcore surface plasmon resonance biosensor assay. As to conditions: C-terminally biotinylated peptide immobilized on SA chip, CSN^ΔCSNAP 1-8 nM injected, 180 s binding, 1,000 s dissociation, 25°C, 1:1 binding fit. The text has this:
To validate the peptide array results, we used the surface plasmon resonance biosensor (Biacore) method to measure the binding affinities between C-CSNAP peptides and CSN^ΔCSNAP. We selected three peptides, the 16 residue C-terminal fragment (^42[…]^57, 16AA C-CSNAP) (Fig 4B), the 20 amino acid peptide (^38[…]^57, 20AA C-CSNAP) (Fig 4C), and a peptide containing the substitution of Asp to Glu at position 42 (D42E C-CSNAP) (Fig 4D). As a positive control, we used full-length CSNAP (Fig 4A), and a scrambled peptide ([…]) (Fig 4E) was used as a negative control. Interaction between the CSN^ΔCSNAP complex and the CSNAP variants was measured using a setting of 180 s binding followed by 1,000 s dissociation time (Fig 4).
Figure 4. C-CSNAP peptides display high affinity towards the CSN^ΔCSNAP complex. […] (F) Binding rate constants and affinities were determined via Biacore Evaluation Software analysis of SPR sensograms. […]
The experiments were carried out using Biacore SA200 SPR sensor (Biacore, GE Healthcare) with control software version 1.1 and Cytiva Series S Sensor chip SA. […] Data were analyzed in SA200 evaluation software version 1.1, with automatic fitting using parameter setting 1:1 binding (ka, kd, and tc global fit, Rmax and RI local fit).

In test [5] the test system is CSN^ΔCSNAP complex. As to the kind of experiment: Peptide array screen of C-CSNAP peptides with rCSN^ΔCSNAP.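 Further: Array-printed peptides incubated with 0.5 µM CSN^ΔCSNAP, bound complex detected by anti-CSN3 antibody plus HRP-linked secondary, spot intensity expressed relative to the parent reference peptide spot.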 The format is binding. The note with it: peptide array with rCSN^ΔCSNAP; average of 5 experiments, left and right (n = 10), fold of C-CSNAP (A1).
Method: Peptide array screen of modified C-CSNAP peptides. C-CSNAP peptide and its derivatives were printed on a microarray. The array was blocked and incubated with or without the CSN∆CSNAP complex and probed using an anti-CSN3 antibody and HRP-conjugated secondary antibody. To assess non-specific binding of the antibodies to the array, anti-CSN3 and anti-GAR-HRP were used without the addition of the COP9 signalosome complex (CSN). Signal intensity of each spot was measured and normalized to the intensity of the spot of C-CSNAP (A1). Measured values for each spot were averaged from six arrays and plotted with standard errors SEM.
(§2) Intensity values are normalized to the intensity of the 16AA C-CSNAP peptide (A1) on each array from three independent experiments in duplicates, and averages from the six replicates are calculated with SEM.
(§3) Optimization of C-CSNAP sequence for enhanced binding to recombinant CSN^ΔCSNAP was screened by printing the modified sequences of CSNAP or C-CSNAP (Phe to Trp, Asp to Glu, Ala screen, D-amino acid screen, N-α-methylation, and Aib incorporation on INTAVIS Celluspots array [2 × 384spots]). The array was blocked with 5% skim milk in TBS-0.5% Tween 20 (TBS-T) for 4 h at room temperature, washed three times in TBS-T, and then incubated with 0.5 μM CSN^ΔCSNAP in 5% milk–TBS-T. Bound CSN^ΔCSNAP was visualized by incubating with anti-CSN3 (ab79698) antibody (1:10,000, overnight) and goat-anti-rabbit-HRP secondary antibody (1:10,000, 1 h).
Test [6] concerns recombinant CSN complex. As to the kind of experiment: Peptide array screen of C-CSNAP peptides with recombinant CSN (rCSN^WT).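 Further: densitometric signal of CSN bound to each synthesized peptide spot, with an antibody-only array lacking CSN run to exclude non-specific binding, higher values meaning stronger binding.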 The format is binding. The note with it: rCSN^WT on INTAVIS Celluspots array, anti-CSN3 and HRP secondary antibody; average of six replicates (three independent experiments in duplicates).
Method: To generate an optimized C-CSNAP peptide, we used the peptide array methodology. The array was designed to screen for the optimal peptide length, sequence, and stability (Fig 3A). A recombinant CSN complex was expressed, purified, and screened for binding to the peptide array by using an anti-CSN3 antibody. To rule out non-specific binding of the probing antibody, a control experiment was carried out without the addition of the CSN complex (Fig 3A right panel).
C-CSNAP peptide and its derivatives were synthesized on a microarray. The array was blocked and incubated with or without the COP9 signalosome complex (CSN) and probed using an anti-CSN3 antibody and HRP-conjugated secondary antibody. To assess non-specific binding of the antibodies to the array, anti-CSN3 and anti-GAR–HRP were used without the addition of the CSN. Signal intensity of each spot was measured and normalized to the intensity of the spot of C-CSNAP (A1). Measured values for each spot were averaged from six arrays and plotted with SEM. […] (A) A representative image of the peptide array (left) and the background (right). (B) Elongation of the C-terminal 16 amino acids (green) with one residue at a time based on the full-length sequence. […] (F) Single D-amino acid substitution at various positions.
as §2, §3

Where no end group is shown, it is not given here.

For the substance “16AA C-CSNAP–Cer: 16AA C-CSNAP fused to the fluorescent protein cerulean (Cer), expressed in HAP1 cells (DFFNDFEDLFDDDDIQ; also: C-terminal fusion to Cerulean via Gly-Ser-Gly-Ser linker)”, in test [1], the “integration into the CSN complex, based on band intensities, in words” value was “lower”. The “association with / incorporation into the CSN complex, in words” value in test [2] was “highest degree of association with the CSN complex”. Further, in test [3], the “cell proliferation compared with cells expressing only Cer, in words” value is recorded as “significant reductions in cell proliferation”.

Regarding “20AA C-CSNAP–Cer: 20AA C-CSNAP fused to the fluorescent protein cerulean (Cer), expressed in HAP1 cells (AVHADFFNDFEDLFDDDDIQ; also: fused to Cerulean, end not given here)”, the “integration into the CSN complex, based on band intensities, in words” value in test [1] is given as “highest ability to integrate into CSN”. Moreover, the “cell proliferation compared with cells expressing only Cer, in words” value in test [3] is reported as “significant reductions in cell proliferation”.

As for IDGENVSNLDYARKAT [scrambled peptide], the Kd entry in test [4] is given as “No measurable binding”.

In the case of “YVDLDEAGGSTGLLMDLAANEKAVHADFFNDFEDLFDDDDIQ [B 3, CSNAP residues 16-57]”, in test [5], the Average fold change is 0.9215 fold. Further, in test [6], the “Average fold change, intensities as fold of C-CSNAP (A1)” value was 1.1108 fold of C-CSNAP (A1).
